Results as given in US11225477B2, “Inhibitors of influenza virus replication, application methods and uses thereof” (SUNSHINE LAKE PHARMA CO., LTD., priority 2015, dated 2022).

What was measured:
in vivo = conditions: SD, rat
Protocol: (§1) The compounds disclosed herein were administered in form of a saline solution containing 5% DMSO, 5% Kolliphor HS 15 and 90% Saline. […] Plasma samples were collected and stored at −20° C. or −70° C. until LC/MS/MS analysis.

virus H1N1 A/Weiss/43 [1] = assay: microbe, parasite or virus in culture; type: cell-based; conditions: Influenza A virus, 120 h; MDCK cells, H1N1 A/Weiss/43, Scheme 1: 8 concentrations 100 μM to 0.05 μM, 5 days, CCK-8
[2] = SD, rat, in vivo, po, 5 mg/kg
Protocol: as §1

virus H1N1 A/Weiss/43 [3] = assay: microbe, parasite or virus in culture; type: cell-based; conditions: Influenza A virus, 120 h; MDCK cells, H1N1 A/Weiss/43, Scheme 2: 8 concentrations 50 nM to 0.023 nM, 5 days, CCK-8

Row | SMILES | AUC(0-inf) (in vivo; iv, 1 mg/kg) | AUC(0-t) (in vivo; iv, 1 mg/kg) | Cmax (in vivo; iv, 1 mg/kg) | Tmax (in vivo; iv, 1 mg/kg) | Vd (in vivo; iv, 1 mg/kg) | clearance (in vivo; iv, 1 mg/kg) | half-life (in vivo; iv, 1 mg/kg) | AUC(0-inf) (in vivo; po, 5 mg/kg) | AUC(0-t) (in vivo; po, 5 mg/kg) | Cmax (in vivo; po, 5 mg/kg) | Tmax (in vivo; po, 5 mg/kg) | half-life (in vivo; po, 5 mg/kg) | EC50 (virus H1N1 A/Weiss/43 [1]) | F [2] | EC50 (virus H1N1 A/Weiss/43 [3])
1 | O=C(O)C1C2CCC(CC2)C1Nc1nc(-c2c[nH]c3ncc(F)cc23)nc2c1CCCC2 (racemic) [Example 2, (+/−)-trans-3-((2-(5-fluoro-1H-pyrrolo[2,3-b]pyridin-3-yl)-5,6,7,8-tetrahydroquinazolin-4-yl)amino)bicyclo[2.2.2]octane-2-carboxylic Acid] | 3470 ng·h/mL | 3440 ng·h/mL | 4910 ng/mL | 4.98 min | 1.26 L/kg | 4.9 mL/min/kg | 63.6 min | 8180 ng·h/mL | 8080 ng·h/mL | 4020 ng/mL | 25 min | 79.8 min | < 50 nM | 47.1% | –
2 | COc1ccc(-c2cc(NC3C4CCC(CC4)C3C(=O)O)nc(-c3c[nH]c4ncc(F)cc34)n2)cc1 (racemic) [Example 3, (+/−)-trans-3-((2-(5-fluoro-1H-pyrrolo[2,3-b]pyridin-3-yl)-6-(4-methoxyphenyl)pyrimidin-4-yl)amino)bicyclo[2.2.2]octane-2-carboxylic Acid] | – | – | – | – | – | – | – | – | – | – | – | – | < 50 nM | – | –
3 | O=C(O)C1C2CCC(CC2)C1Nc1cc(-c2cc3ccccc3s2)nc(-c2c[nH]c3ncc(F)cc23)n1 (racemic) [Example 17, (+/−)-trans-3-((6-(benzo[b]thiophen-2-yl)-2-(5-fluoro-1H-pyrrolo[2,3-b]pyridin-3-yl)pyrimidin-4-yl)amino)bicyclo[2.2.2]octane-2-carboxylic Acid] | 2520 ng·h/mL | 2510 ng·h/mL | 4420 ng/mL | 4.98 min | 1.49 L/kg | 6.62 mL/min/kg | 67.2 min | 8360 ng·h/mL | 8270 ng·h/mL | 2660 ng/mL | 30 min | 54.7 min | – | 66.4% | 0.54 nM
4 | O=C(O)C1C2CCC(CC2)C1Nc1nc(-c2c[nH]c3ncc(F)cc23)nc2ccccc12 (racemic) [Example 1, (+/−)-trans-3-((2-(5-fluoro-1H-pyrrolo[2,3-b]pyridin-3-yl)quinazolin-4-yl)amino)bicyclo[2.2.2]octane-2-carboxylic Acid] | 5020 ng·h/mL | 4960 ng·h/mL | 5900 ng/mL | 4.98 min | 1.03 L/kg | 3.42 mL/min/kg | 67.8 min | 10600 ng·h/mL | 10100 ng·h/mL | 3130 ng/mL | 50 min | 88.8 min | < 50 nM | 42.1% | –
5 | O=C(O)C1C2CCC(CC2)C1Nc1cc(-c2ccc(F)cc2)nc(-c2c[nH]c3ncc(F)cc23)n1 (racemic) [Example 6, (+/−)-trans-3-((2-(5-fluoro-1H-pyrrolo[2,3-b]pyridin-3-yl)-6-(4-fluorophenyl)pyrimidin-4-yl)amino)bicyclo[2.2.2]octane-2-carboxylic Acid] | – | – | – | – | – | – | – | – | – | – | – | – | < 50 nM | – | –
6 | O=C(O)C1C2CCC(CC2)C1Nc1cc(-c2ccccc2)nc(-c2c[nH]c3ncc(F)cc23)n1 (racemic) [Example 4, (+/−)-trans-3-((2-(5-fluoro-1H-pyrrolo[2,3-b]pyridin-3-yl)-6-phenylpyrimidin-4-yl)amino)bicyclo[2.2.2]octane-2-carboxylic Acid] | 4610 ng·h/mL | 4540 ng·h/mL | 5980 ng/mL | 4.98 min | 0.412 L/kg | 3.66 mL/min/kg | 163 min | 12800 ng·h/mL | 12800 ng·h/mL | 3480 ng/mL | 40 min | 178 min | < 50 nM | 56.4% | 0.2 nM
